Results: publication PMC11507974, “Phytochemical Analysis, Antioxidant Activity and Bioassay-Guided Isolation of Acetylcholinesterase and Butyrylcholinesterase Inhibitors from Horsfieldia polyspherula Bark (Myristicaceae)” (Tropical Life Sciences Research, 2024)
Where two headings read alike, the source gives them in different places.

Tests used:
[1] = DPPH radical scavenging; settings: 15 min incubation, 517 nm
Description: The free radical scavenging activity of the samples was determined using 1,1-diphenyl-2 picrylhydrazyl (DPPH) assay as described with minor modification ([Chua et al. 2013]). The DPPH solution was prepared by dissolving 3.0 mg of DPPH in 150 mL of methanol to afford 20 μg/mL. A 750 μL of the sample’s solution at different concentrations, ranging from 1.25 mg/mL to 40 mg/mL was added to 1,500 μL of DPPH solution. The absorbance was recorded at 517 nm using Shimadzu UV-2600 UV-Vis spectrophotometer after 15 min of incubation at room temperature. Ascorbic acid was used as the positive control, while methanol was used as negative control for scanning the background. The ability to scavenge the DPPH was calculated using Equation 2:
(2) DPPH radical scavenging activity (%)=Abs control-Abs sample/Abs control×100
where Abs control is the absorbance of DPPH while Abs sample is the absorbance of the sample. […] All experiments were performed in triplicates.

[2] = molecular target: T1, AChE from Electrophorus electricus (electric eel) Type V-S (Electrophorus electricus, UniProt O42275); assay: biochemical; format: biochemical; settings: for SI (selectivity index for AChE): IC50 (BuChE)/ IC50 (AChE)
T1 construct: purified AChE from Electrophorus electricus (electric eel) Type V-S (C2888-1K); purchased Sigma Aldrich, Germany C2888-1K
T1 sequence (O42275 24-633): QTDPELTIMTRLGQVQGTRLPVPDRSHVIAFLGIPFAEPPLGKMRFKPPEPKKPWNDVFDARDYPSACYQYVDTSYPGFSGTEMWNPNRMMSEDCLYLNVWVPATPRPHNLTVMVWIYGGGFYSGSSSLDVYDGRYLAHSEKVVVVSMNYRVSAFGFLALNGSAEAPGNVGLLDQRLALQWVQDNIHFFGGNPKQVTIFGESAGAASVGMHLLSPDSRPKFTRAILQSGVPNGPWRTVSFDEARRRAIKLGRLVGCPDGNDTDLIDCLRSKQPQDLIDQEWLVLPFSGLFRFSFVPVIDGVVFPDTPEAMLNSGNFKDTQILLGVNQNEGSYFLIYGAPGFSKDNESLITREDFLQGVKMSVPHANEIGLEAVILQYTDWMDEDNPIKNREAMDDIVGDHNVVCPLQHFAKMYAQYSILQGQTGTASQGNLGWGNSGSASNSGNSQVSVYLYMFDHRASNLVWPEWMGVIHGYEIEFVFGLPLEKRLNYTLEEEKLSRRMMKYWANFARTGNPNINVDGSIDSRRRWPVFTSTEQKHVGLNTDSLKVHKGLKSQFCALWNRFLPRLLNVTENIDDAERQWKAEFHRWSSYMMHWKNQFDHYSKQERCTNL
Description: (§1) To assess the inhibitory activity of H. polyspherula extract, fractions and isolated compounds towards AChE and BuChE, Ellman’s spectrophotometric method was followed ([Ellman et al. 1961]) using purified AChE from Electrophorus electricus (electric eel) Type V-S (C2888-1K), and BuChE from equine serum lyophilized powder (C7512-1.2KU) all from Sigma Aldrich, Germany. The reaction took place in a final volume of 200 μL of a (140 μL to 160 μL) 100 mM phosphate-buffered solution at pH 7.5 for AChE and 8.0 for BuChE, containing (20 μL) 0.2 U of AChE or 0.1 U of BuChE. Inhibition curves were made by pre-incubating this mixture with six concentrations of each sample (20 μL) for 15 min. A sample with no compound (blank) was present to determine the 100% of enzyme activity. After the pre-incubation period, ten microlitre (10 μL) of 10 mM of 5,5′-dithiobis-2-nitrobenzoic acid (DTNB, D8130 Sigma Aldrich, Germany) was added prior to 14 mM (10 μL) acetylthiocholine iodide (A5751) or 14 Mm butyrylthiocholine iodide (B3253-5G) source from Sigma Aldrich, Germany) were added, DTNB produces yellow anion 5-thio-2-nitrobenzoic acid along with the enzymatic degradation of ATChI or BuTChI. Changes in absorbance were detected at 412 nm in a 96 well spectrophotometric microplate reader (Bostch Biotek) after 30 min. […] Data are analysed using excel, graph pad prism 9.0.0 and expressed as means ± SD of at least three different experiments in triplicate.
(§2) (3) % inhibition=[…]/Abs (blank)×100

[3] = molecular target: T2, BuChE from equine serum (Equus caballus, UniProt P81908); assay: biochemical; format: biochemical; settings: for SI (selectivity index for BuChE): IC50 (AChE)/ IC50 (BuChE)
T2 construct: BuChE from equine serum lyophilized powder (C7512-1.2KU); purchased Sigma Aldrich, Germany C7512-1.2KU; host or cells: equine serum
T2 sequence (P81908 whole entry): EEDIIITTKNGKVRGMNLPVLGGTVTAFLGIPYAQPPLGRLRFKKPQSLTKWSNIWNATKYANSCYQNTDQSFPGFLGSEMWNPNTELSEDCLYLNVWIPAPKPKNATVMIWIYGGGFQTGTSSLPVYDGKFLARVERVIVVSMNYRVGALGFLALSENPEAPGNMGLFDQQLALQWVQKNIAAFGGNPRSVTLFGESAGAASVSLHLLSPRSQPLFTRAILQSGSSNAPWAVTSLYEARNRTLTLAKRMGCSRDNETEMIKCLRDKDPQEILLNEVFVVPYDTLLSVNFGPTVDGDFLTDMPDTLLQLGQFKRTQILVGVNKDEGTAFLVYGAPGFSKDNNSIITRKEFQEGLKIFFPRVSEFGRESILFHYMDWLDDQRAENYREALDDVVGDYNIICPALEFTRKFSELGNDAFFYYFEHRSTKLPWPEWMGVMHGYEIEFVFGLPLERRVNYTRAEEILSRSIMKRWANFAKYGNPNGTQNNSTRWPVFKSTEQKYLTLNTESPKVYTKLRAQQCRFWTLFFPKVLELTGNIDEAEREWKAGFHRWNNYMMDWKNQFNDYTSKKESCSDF
Description: as §1, §2

[4] = IC50 AChE, pure compounds (μM for the pure compound)
[5] = IC50 BuChE, pure compounds (μM for the pure compound)
[6] = pure compounds (μM for the pure compound)

SMILES | IC50 of DPPH free radical scavenging activity [1] | SI (selectivity index for AChE) [2] | SI (selectivity index for BuChE) [3] | IC50 [2, 4] | IC50 [3, 5] | also measured
O=C1O[C@H]([C@@H](O)CO)C(O)=C1O [Ascorbic acid, reference compound] | 4.21 ± 0.13 µg/mL |  |  |  |  | 
O=C(O)CCCCCCCCCCCCCCCc1ccccc1 [Compound 1, 16-phenylhexadecanoic acid] |  | 0.88 | 1.14 |  |  | IC50 ([2]; pure compounds (μM for the pure compound), read-out: IC50 AChE): 46.8 ± 2.44 µM; IC50 ([3]; pure compounds (μM for the pure compound), read-out: IC50 BuChE): 41 ± 1.99 µM
CCCCCCCCCCCc1ccccc1 [Compound 2, Undecylbenzene] |  | 0.95 | 1.05 | 246.1 ± 1.4 µM | 234 ± 4.78 µM | 
O=C(O)c1ccc(O)c(O)c1 [Compound 3, 3,4-dihydroxybenzoic acid] | 6.56 ± 0.02 µg/mL | 0.71 | 1.41 | 327 ± 6.83 µM | 232 ± 8.37 µM | 
CCCCCCCCCCCCCC(=O)OCC(COC(=O)CCCCCCCCCCCCC)OC(=O)CCCCCCCCCCCCC [Compound 9, Trimyristin] |  |  |  |  |  | IC50 AChE [2, 6]: no inhibitory activities; IC50 BuChE [3, 6]: no inhibitory activities
CNC(=O)Oc1ccc2c(c1)[C@]1(C)CCN(C)[C@@H]1N2C [Eserine, reference compound] |  |  |  |  |  | % inhibition BuChE ([3]; control, tested at 0.2 μM): 44.45 ± 0.23%
